Experiment: recombinant UMI read abundance after kanamycin selection (control-corrected) (log10(CPM+1)); higher = more efficient recombination; extreme values may be limits of the assay; sequences stand for … in AGTGCAGAGAAAATCGGCCAGTTTTCTCTGCCTGCAGTCCGCATGCCGTGGGACCCCTTGGGTTCTAACCTGTTGCCTAGATTTATGCAGCGGACTGCCTTTCTCCCAAAGTGATAAACCGG…AGGTTGGTTTCACT; site = the 11-nt donor
Procedure: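 Pooled E. coli donor-specificity screen for the IS621 bridge recombinase. Each library member carries a reprogrammed 11-nt donor and a full-length LE bridge RNA expressed in cis from the natural promoter, with a paired donor-binding loop (8-nt LDG + 4-nt RDG) and a target-binding loop fixed to T5. It is co-electroporated with a T5 target plasmid; recombinase is induced with 0.07 mM IPTG and recombinants are selected on kanamycin. UMIs are counted as CPM, averaged over two biological replicates and corrected by the unselected control. Molecule = full bridge RNA written as DNA, built from the T5 scaffold: LDG = donor specificity nt 1-8, RDG = reverse complement of nt 8-11.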
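Note: IS621 bridge recombinase in Escherichia coli cells against a fixed T5 target plasmid.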

| Sequence | recombinant UMI read abundance (log10) |
| --- | --- |
| AACTAGCCATGGACCGGTTTTCCCGGTAATCCGTATTTGCG (site AACTAGCCTCG) | 0.00356 |
| AACTATACATGGACCGGTTTTCCCGGTAATCCGTATTTGAC (site AACTATACTGT) | 2.31 |
| AACTATACATGGACCGGTTTTCCCGGTAATCCGTATTTGAC (site ACCTATACTGT) | 0.367 |
| AACTATACATGGACCGGTTTTCCCGGTAATCCGTATTTGAC (site AGCTATACTGT) | 0.797 |
| AACTATACATGGACCGGTTTTCCCGGTAATCCGTATTTGAC (site ATCTATACTGT) | 1.94 |
| AACTATGCATGGACCGGTTTTCCCGGTAATCCGTATTTGGA (site AAATATGCTTC) | 0.502 |
| AACTATGCATGGACCGGTTTTCCCGGTAATCCGTATTTGGA (site AACTATGCTTC) | 1.22 |
| AACTATGCATGGACCGGTTTTCCCGGTAATCCGTATTTGGA (site AAGTATGCTTC) | 0.552 |
| AACTATGCATGGACCGGTTTTCCCGGTAATCCGTATTTGGA (site AATTATGCTTC) | 0.908 |
| AACTATTCATGGACCGGTTTTCCCGGTAATCCGTATTTGCG (site AACTATTCTCG) | 2.02 |
| AACTGGACATGGACCGGTTTTCCCGGTAATCCGTATTTGGG (site AACTGGACTCC) | 0.0254 |
| AACTTGACATGGACCGGTTTTCCCGGTAATCCGTATTTGAC (site AACTTGACTGT) | 0 |
| AACTTGTCATGGACCGGTTTTCCCGGTAATCCGTATTTGGC (site AACTTGTCTGC) | 0 |
| AAGAACACATGGACCGGTTTTCCCGGTAATCCGTATTTGCA (site AAGAACACTTG) | 2.85 |
| AAGAACACATGGACCGGTTTTCCCGGTAATCCGTATTTGCA (site AGGAAGACTTG) | 0 |
| AAGAAGACATGGACCGGTTTTCCCGGTAATCCGTATTTGAA (site AAGAAGACTTT) | 2.39 |
| AAGAAGACATGGACCGGTTTTCCCGGTAATCCGTATTTGAA (site AGGAAGACTTG) | 0 |
| AAGAAGTCATGGACCGGTTTTCCCGGTAATCCGTATTTGTA (site AAGAAGTCTTA) | 3.3 |
| AAGAGGACATGGACCGGTTTTCCCGGTAATCCGTATTTGCA (site AAGAGGACTTG) | 2.65 |

| Sequence | recombinant UMI read abundance (log10) |
| --- | --- |
| AAGAGGACATGGACCGGTTTTCCCGGTAATCCGTATTTGCA (site AGGAAGACTTG) | 1.62 |
| AAGCAAGCATGGACCGGTTTTCCCGGTAATCCGTATTTGGG (site AAGCAAGCTCC) | 0.623 |
| AAGCAAGCATGGACCGGTTTTCCCGGTAATCCGTATTTGGG (site AAGCACGCTCC) | 0.0526 |
| AAGCAAGCATGGACCGGTTTTCCCGGTAATCCGTATTTGGG (site AAGCAGGCTCC) | 0 |
| AAGCAAGCATGGACCGGTTTTCCCGGTAATCCGTATTTGGG (site AAGCATGCTCC) | 0.0463 |
| AAGCACACATGGACCGGTTTTCCCGGTAATCCGTATTTGGG (site AAGCACACTCC) | 0.242 |
| AAGCACACATGGACCGGTTTTCCCGGTAATCCGTATTTGGG (site AAGCACCCTCC) | 0.0138 |
| AAGCACACATGGACCGGTTTTCCCGGTAATCCGTATTTGGG (site AAGCACGCTCC) | 0.0056 |
| AAGCACACATGGACCGGTTTTCCCGGTAATCCGTATTTGGG (site AAGCACTCTCC) | 0.222 |
| AAGCACTCATGGACCGGTTTTCCCGGTAATCCGTATTTGGG (site AAGCACACTCC) | 0.0075 |
| AAGCACTCATGGACCGGTTTTCCCGGTAATCCGTATTTGGG (site AAGCACCCTCC) | 0.00615 |
| AAGCACTCATGGACCGGTTTTCCCGGTAATCCGTATTTGGG (site AAGCACGCTCC) | 0.0931 |
| AAGCACTCATGGACCGGTTTTCCCGGTAATCCGTATTTGGG (site AAGCACTCTCC) | 1.57 |
| AAGCCTGCATGGACCGGTTTTCCCGGTAATCCGTATTTGTA (site AAGCCTGCTTA) | 0.811 |
| AAGCGCGCATGGACCGGTTTTCCCGGTAATCCGTATTTGGG (site AAGCACGCTCC) | 0.0182 |
| AAGCGCGCATGGACCGGTTTTCCCGGTAATCCGTATTTGGG (site AAGCCCGCTCC) | 0.0103 |
| AAGCGCGCATGGACCGGTTTTCCCGGTAATCCGTATTTGGG (site AAGCGCGCTCC) | 0.214 |
| AAGCGCGCATGGACCGGTTTTCCCGGTAATCCGTATTTGGG (site AAGCTCGCTCC) | 0.0124 |
| AAGCGTCCATGGACCGGTTTTCCCGGTAATCCGTATTTGAT (site AAACGTCCTAT) | 0.245 |

| Sequence | recombinant UMI read abundance (log10) |
| --- | --- |
| AAGCGTCCATGGACCGGTTTTCCCGGTAATCCGTATTTGAT (site AACCGTCCTAT) | 0.281 |
| AAGCGTCCATGGACCGGTTTTCCCGGTAATCCGTATTTGAT (site AAGCGTCCTAT) | 1.17 |
| AAGCGTCCATGGACCGGTTTTCCCGGTAATCCGTATTTGAT (site AATCGTCCTAT) | 0.017 |
| AAGCTAGCATGGACCGGTTTTCCCGGTAATCCGTATTTGAA (site AAGCTAGCTTT) | 2.09 |
| AAGCTAGCATGGACCGGTTTTCCCGGTAATCCGTATTTGAA (site CAGCTAGCTTT) | 1.37 |
| AAGCTAGCATGGACCGGTTTTCCCGGTAATCCGTATTTGAA (site GAGCTAGCTTT) | 0.00246 |
| AAGCTAGCATGGACCGGTTTTCCCGGTAATCCGTATTTGAA (site TAGCTAGCTTT) | 1.48 |
| AAGCTCGCATGGACCGGTTTTCCCGGTAATCCGTATTTGGG (site AAGCACGCTCC) | 0.0201 |
| AAGCTCGCATGGACCGGTTTTCCCGGTAATCCGTATTTGGG (site AAGCCCGCTCC) | 0.0313 |
| AAGCTCGCATGGACCGGTTTTCCCGGTAATCCGTATTTGGG (site AAGCGCGCTCC) | 0.0107 |
| AAGCTCGCATGGACCGGTTTTCCCGGTAATCCGTATTTGGG (site AAGCTCGCTCC) | 0.0176 |
| AAGGATCCATGGACCGGTTTTCCCGGTAATCCGTATTTGTT (site AAGGATCCTAA) | 1.19 |
| AAGGGCTCATGGACCGGTTTTCCCGGTAATCCGTATTTGGA (site AAGGGCTCTTC) | 1.96 |
| AAGGTAACATGGACCGGTTTTCCCGGTAATCCGTATTTGCT (site AAAGTAACTAG) | 2.59 |
| AAGGTAACATGGACCGGTTTTCCCGGTAATCCGTATTTGCT (site AACGTAACTAG) | 0.731 |
| AAGGTAACATGGACCGGTTTTCCCGGTAATCCGTATTTGCT (site AAGGTAACTAG) | 2.73 |
| AAGGTAACATGGACCGGTTTTCCCGGTAATCCGTATTTGCT (site AATGTAACTAG) | 1.43 |
| AAGGTTACATGGACCGGTTTTCCCGGTAATCCGTATTTGAA (site AAGGTTACTTT) | 2.53 |
| AAGTAGGCATGGACCGGTTTTCCCGGTAATCCGTATTTGCA (site AAGTAGGCTTG) | 2.63 |
